Source: US20250332300A1 (priority 2024, published 2025)
Structures can show the parent of a compound that is named as a salt. Where two headings read alike, the source gives them in different places. Starred links: 1 amine or outer side, 2 acyl side, 3 side chain; linkers in the order of their positions; H or OH if unused. Positions of bridges follow the written chain, without caps; N, C: chain ends. Non-standard residues stand in square brackets, D forms with d. Residues, ends and D or L forms follow the SMILES beside them. Trp(5-OH) = N[C@@H](Cc1c[nH]c2ccc(O)cc12)C(=O)O; NMePhe(4-F) = CN[C@@H](Cc1ccc(F)cc1)C(=O)O; X1 = O=C([C@H](Cc1cnn2ccccc12)N[*:1])[*:2]; Lys(N3) = [N-]=[N+]=NCCCC[C@H](N)C(=O)O; isoSer(2S) = O=C([C@@H](O)CN[*:1])[*:2]; NMehPhe = CN[C@@H](CCc1ccccc1)C(=O)O; NMeE = CN[C@@H](CCC(=O)O)C(=O)O; Aad = N[C@@H](CCCC(=O)O)C(=O)O; Gly(cPr) = N[C@H](C(=O)O)C1CC1; NMehCys = CN[C@@H](CCS)C(=O)O; NMeK = CN[C@@H](CCCCN)C(=O)O; NMeDap = CN[C@@H](CN)C(=O)O; NMeS = CN[C@@H](CO)C(=O)O; hCys = N[C@@H](CCS)C(=O)O

Columns and labels:
Format in all cases: binding
human HER2 (23-652) [1] = target: T1, human HER2 (23-652) (Homo sapiens, UniProt P04626); test: Surface plasmon resonance (SPR) for assessment of peptide affinity, human HER2; set-up: towards human HER2 (23-652) and mouse HER2 (23-653); made in house; conditions: SPR, human HER2 extracellular domain, 25° C., 1:1 binding model; read-out: huHER2-SPR-ONC KD
In short: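 Binding kinetics fitted from sensorgrams with 280 s peptide association then 3000 s dissociation (30 uL/min), using HER2 (23-652) either directly immobilized (SA/CM5) or anti-Fc-captured; 3 M magnesium chloride used for regeneration.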

mouse HER2 (23-653) [2] = target: T2, mouse HER2 (23-653) (Mus musculus, UniProt P70424); test: Surface plasmon resonance (SPR) for assessment of peptide affinity, mouse HER2; set-up: mouse HER2 (23-653) using a Cy5 labeled peptide as a probe; made in house; conditions: SPR, mouse HER2 extracellular domain, 25° C., 1:1 binding model; read-out: moHER2-SPR-ONC KD
Description: Each protein was immobilized either onto a SA sensorchip (Cytiva, BR-1005-31) or CM5 sensorchip (Cytiva, BR-1005-30) to a density of 800-2000 RU.

human HER2 (23-652) [3] = target: T1, human HER2 (23-652); test: TR-FRET competition assay for peptide potency, human HER2; set-up: towards human HER2 (23-652) and mouse HER2 (23-653); made in house; host or cells: mammalian cells
mouse HER2 (23-653) [4] = target: T2, mouse HER2 (23-653); test: TR-FRET competition assay for peptide potency, mouse HER2; set-up: mouse HER2 (23-653) using a Cy5 labeled peptide as a probe; made in house; host or cells: mammalian cells
[5] = TR-FRET competition with Cy5 labeled peptide probe, 0.1 nM mouse HER2, 24 h incubation, read-out: moHER2 TR-FRET IC50
[6] = value in parentheses (**): recalculated after further repetition, read-out: huHER2 TR-FRET IC50, recalculated value achieved after further repetition
[7] = TR-FRET competition with Cy5 labeled peptide probe, 0.1 nM human HER2, 24 h incubation, read-out: huHER2 TR-FRET IC50

| Kd (human HER2 (23-652) [1]) | Kd (mouse HER2 (23-653) [2]) | IC50 (human HER2 (23-652) [3]; read-out: huHER2 TR-FRET IC50) | IC50 (mouse HER2 (23-653) [4]; [5]) | IC50 (human HER2 (23-652) [3]; [6]) | IC50 (mouse HER2 (23-653) [4]; value in parentheses (**): recalculated after further repetition, read-out: moHER2 TR-FRET IC50, recalculated value achieved after further repetition) | IC50 (human HER2 (23-652) [3]; [7]) | SMILES |
| --- | --- | --- | --- | --- | --- | --- | --- |
| > 6000 nM | > 6000 nM | > 1000 nM | > 1000 nM |  |  |  | CC(=O)N[C@H]1CCC(=O)NC[C@@H](C(=O)N(C)[C@@H](Cc2ccc(F)cc2)C(N)=O)N(C)C(=O)[C@H](C2CC2)NC(=O)[C@H](Cc2cnn3ccccc23)NC(=O)[C@H](Cc2c[nH]c3ccc(O)cc23)NC(=O)[C@H](CO)N(C)C(=O)[C@H](CCc2ccccc2)N(C)C(=O)[C@H](CO)NC(=O)[C@H](Cc2ccc(O)cc2)NC1=O [Example A21, (3S,6S,9S,12S,15S,18S,21S,24S,27S)-27-acetamido-N-((S)-1-amino-3-(4-fluorophenyl)-1-oxopropan-2-yl)-6-cyclopropyl-12-((5-hydroxy-1H-indol-3-yl)methyl)-24-(4-hydroxybenzyl)-15,21-bis(hydroxymethyl)-N,4,16,19-tetramethyl-5,8,11,14,17,20,23,26,30-nonaoxo-18-phenethyl-9-(pyrazolo[1,5-a]pyridin-3-ylmethyl)-1,4,7,10,13,16,19,22,25-nonaazacyclotriacontane-3-carboxamide] (Ac-EYS[NMehPhe][NMeS][Trp(5-OH)][X1][Gly(cPr)][NMeDap][NMePhe(4-F)]-NH2; lactam 1-9) |
| 0.6 nM | 3.1 nM |  | 4.4 nM | 1.3 nM |  |  | CC(=O)NCCCC[C@H]1C(=O)N[C@@H](Cc2c[nH]c3ccc(O)cc23)C(=O)N[C@@H](Cc2c[nH]c3ccccc23)C(=O)N[C@@H]([C@H](C)O)C(=O)N(C)[C@H](C(=O)N(C)[C@@H](Cc2ccc(F)cc2)C(=O)N[C@@H](CCCCNC(=O)N2CCN(CC(=O)O)CC2)C(N)=O)CNC(=O)CC[C@H](NC(=O)CCNC(=O)CN2CCN(CC(=O)O)CCN(CC(=O)O)CCN(CC(=O)O)CC2)C(=O)N[C@@H](Cc2ccc(O)cc2)C(=O)N[C@@H](CO)C(=O)N(C)[C@@H](CCc2ccccc2)C(=O)N1C [Example C28] |
| 0.1 nM | 0.1 nM | 0.1 nM | 0.5 nM |  | 0.3 nM |  | CC(=O)NCCCC[C@H]1C(=O)N[C@@H](Cc2c[nH]c3ccc(O)cc23)C(=O)N[C@@H](Cc2c[nH]c3ccccc23)C(=O)N[C@@H](C2CC2)C(=O)N(C)[C@H](C(=O)N(C)[C@@H](Cc2ccc(F)cc2)C(=O)N[C@@H](CCCCN=[N+]=[N-])C(N)=O)CNC(=O)CCC[C@H](NC(C)=O)C(=O)N[C@@H](Cc2ccc(O)cc2)C(=O)N[C@@H](CO)C(=O)N(C)[C@@H](CCc2ccccc2)C(=O)N1C [Example A74] (Ac-[Aad]YS[NMehPhe][NMeK](Ac)[Trp(5-OH)]W[Gly(cPr)][NMeDap][NMePhe(4-F)][Lys(N3)]-NH2; lactam 1-9) |
| 178 nM | 148 nM | 97 nM | 287 nM |  |  |  | CC(=O)NCCCC[C@H]1C(=O)N[C@@H](Cc2c[nH]c3ccc(O)cc23)C(=O)N[C@@H](Cc2c[nH]c3ccccc23)C(=O)N[C@@H](C2CC2)C(=O)N(C)[C@H](C(=O)N(C)[C@@H](Cc2ccc(F)cc2)C(N)=O)CCSSCC[C@H](N)C(=O)N[C@@H](Cc2ccc(O)cc2)C(=O)N[C@@H](CO)C(=O)N(C)[C@@H](CCc2ccccc2)C(=O)N1C [Example A55, (5S,8S,11S,14S,17S,20S,23S,26S,29S)-11-((1H-indol-3-yl)methyl)-17-(4-acetamidobutyl)-29-amino-N-((S)-1-amino-3-(4-fluorophenyl)-1-oxopropan-2-y1)-8-cyclopropyl-14-((5-hydroxy-1H-indol-3-yl)methyl)-26-(4-hydroxybenzyl)-23-(hydroxymethyl)-N,6,18,21-tetramethyl-7,10,13,16,19,22,25,28-octaoxo-20-phenethyl-1,2-dithia-6,9,12,15,18,21,24,27-octaazacyclohentriacontane-5-carboxamide TFA salt] (H-[hCys]YS[NMehPhe][NMeK](Ac)[Trp(5-OH)]W[Gly(cPr)][NMehCys][NMePhe(4-F)]-NH2; disulfide 1-9) |
| 309 nM | 421 nM | 223 nM | 413 nM |  |  |  | CC(=O)N[C@H]1CC(=O)NC[C@@H](C(=O)N(C)[C@@H](Cc2ccc(F)cc2)C(N)=O)N(C)C(=O)[C@H](C2CC2)NC(=O)[C@H](Cc2c[nH]c3ccccc23)NC(=O)[C@H](Cc2c[nH]c3ccc(O)cc23)NC(=O)[C@H](CO)N(C)C(=O)[C@H](CCc2ccccc2)N(C)C(=O)[C@H](CO)NC(=O)[C@H](Cc2ccc(O)cc2)NC1=O [Example A28, (3S,6S,9S,12S,15S,18S,21S,24S,27S)-9-((1H-indol-3-yl)methyl)-27-acetamido-N-((S)-1-amino-3-(4-fluorophenyl)-1-oxopropan-2-yl)-6-cyclopropyl-12-((5-hydroxy-1H-indol-3-yl)methyl)-24-(4-hydroxybenzyl)-15,21-bis(hydroxymethyl)-N,4,16,19-tetramethyl-5,8,11,14,17,20,23,26,29-nonaoxo-18-phenethyl-1,4,7,10,13,16,19,22,25-nonaazacyclononacosane-3-carboxamide] (Ac-DYS[NMehPhe][NMeS][Trp(5-OH)]W[Gly(cPr)][NMeDap][NMePhe(4-F)]-NH2; lactam 1-9) |
| < 0.1 nM | < 0.1 nM |  |  |  |  | < 0.1 nM | CC(=O)NCCCC[C@H]1C(=O)N[C@@H](Cc2c[nH]c3ccc(O)cc23)C(=O)N[C@@H](Cc2c[nH]c3ccccc23)C(=O)N[C@@H](C2CC2)C(=O)N(C)[C@H](C(=O)N(C)[C@@H](Cc2ccc(F)cc2)C(=O)N[C@@H](CCCCNC(=O)CCC(C(=O)O)N2CCN(CC(=O)O)CCN(CC(=O)O)CC2)C(N)=O)CNC(=O)CCC[C@H](NC(C)=O)C(=O)N[C@@H](Cc2ccc(O)cc2)C(=O)N[C@@H](CO)C(=O)N(C)[C@@H](CCc2ccccc2)C(=O)N1C (single isomer, unassigned) [Example C35] |
|  | 2.7 nM | 3 nM | 5.5 nM |  |  |  | CC(=O)NCCCC[C@H]1C(=O)N[C@@H](Cc2c[nH]c3ccc(O)cc23)C(=O)N[C@@H](Cc2c[nH]c3ccccc23)C(=O)N[C@@H](C2CC2)C(=O)N(C)[C@H](C(=O)N(C)[C@@H](Cc2ccc(F)cc2)C(N)=O)CCC(=O)NC[C@H](O)C(=O)N[C@@H](Cc2ccc(O)cc2)C(=O)N[C@@H](CO)C(=O)N(C)[C@@H](CCc2ccccc2)C(=O)N1C [Example A23, (3S,6S,9S,12S,15S,18S,21S,24S,30S)-6-((1H-indol-3-yl)methyl)-12-(4-acetamidobutyl)-N-((S)-1-amino-3-(4-fluorophenyl)-1-oxopropan-2-yl)-3-cyclopropyl-24-hydroxy-9-((5-hydroxy-1H-indol-3-yl)methyl)-21-(4-hydroxybenzyl)-18-(hydroxymethyl)-N,1,13,16-tetramethyl-2,5,8,11,14,17,20,23,27-nonaoxo-15-phenethyl-1,4,7,10,13,16,19,22,26-nonaazacyclotriacontane-30-carboxamide] ([isoSer(2S)]YS[NMehPhe][NMeK](Ac)[Trp(5-OH)]W[Gly(cPr)][NMeE][NMePhe(4-F)]-NH2; lactam N-9) |
|  | 9.3 nM |  | 13 nM | 11 nM |  | 13 nM | CC(=O)NCCCC[C@H]1C(=O)N[C@@H](Cc2c[nH]c3ccc(O)cc23)C(=O)N[C@@H](Cc2c[nH]c3ccccc23)C(=O)N[C@@H]([C@H](C)O)C(=O)N(C)[C@H](C(=O)N(C)[C@@H](Cc2ccc(F)cc2)C(=O)N[C@@H](CCCCNC(=O)N2CCN(CC(=O)O)CC2)C(=O)N[C@@H](CCCCNC(=O)CN2CCN(CC(=O)O)CCN(CC(=O)O)CCN(CC(=O)O)CC2)C(N)=O)CNC(=O)CC[C@H](NC(C)=O)C(=O)N[C@@H](Cc2ccc(O)cc2)C(=O)N[C@@H](CO)C(=O)N(C)[C@@H](CCc2ccccc2)C(=O)N1C [Example C24] |
